According to PMC7961786, “Magic Peptide: Unique Properties of the LRR11 Peptide in the Activation of Leukotriene Synthesis in Human Neutrophils” (International Journal of Molecular Sciences, 2021):
Entries after “also recorded” stand apart in the source; their conditions may differ.

Columns and labels:
[1] = tested on: human neutrophils (PMNLs), 5-LOX product synthesis; assay: 5-LOX metabolite synthesis in human neutrophils stimulated with opsonized S. typhimurium (HPLC); format: cell-based
[2] = tested on: mouse-derived monocyte/macrophage cell line RAW 264.7; conditions: ref [9]; cited from earlier work
Text: (§1) In neutrophils, bacteria and pathogen-associated molecular patterns (PAMPs) that are expressed by microorganisms are recognized by Toll-like receptors (TLRs). In particular, the mechanisms of immunoregulatory activity of CpG-containing bacterial or synthetic DNA fragments include their interaction with TLR9 receptors, known as DNA sensors. Therefore, synthetic peptides that mimics DNA recognizing regions of the receptor can be effective modulators of neutrophil cell responses. The crystal structure of TLR9 was analyzed and it was predicted that leucine-rich repeats (L ...

[3] = tested on: TLR9 signaling in RAW 264.7; conditions: ref [9]; cited from earlier work
Text: as §1

[4] = tested on: CpG-ODNs; conditions: ref [8]; cited from earlier work
Text: as §1

[5] = tested on: PMNLs; assay: Neutrophil adhesion to fibrinogen-coated plates; format: cell-based, human; conditions: 1 µM ODN +/- 1 µM LRR11, 20 min, 37 °C, n = 3, Figure S2a
Description: Figure S2a. Effects of ODNs and LRR11 peptide on neutrophil adhesiveness. PMNLs (10^6 cells/probe in HBSS/HEPES) supplemented with 1 µM ODN +/- 1 µM LRR11, except for control samples containing HBSS/HEPES instead of ODNs, were incubated in fibrinogen-coated 24-well plates for 20 min at 37 °C in 5 % CO2. The supernatants were then carefully removed, and wells were washed twice with warm PBS to remove unattached cells. Adhesion quantitative assessment was carried out as described in [59]. Briefly, hydrogen peroxide (4 mM final concentration) in permeabilizing buffer (67 mM Na2HPO4, 35 mM citric acid, 0.1% Triton X-100) supplemented with 5.5 mM ortho-phenylenediamine was added to the attached PMNLs for 5 min. The reaction was stopped by adding of 1M H2SO4, followed by recording the absorption values at 492 nm and comparing them with the calibration values. Data are means ± SEM of attached cells amounts, as the percentages of PMNLs initially contained in the samples (n=3; *p < 0.05; **p < 0.01 in comparison with corresponding controls, as indicated by two-way ANOVA followed by Dunnett’s multiple comparison test). […]

Which “effect on 5-LOX activity / leukotriene synthesis” value ([1]; ODN alone, 1 µM, 20 min, then opsonized S. typhimurium 15 min, Figure 1, five independent experiments in duplicate) does the source give for “5′-tcgtcgttttcggcgcgcgccg-3′ (DNA TCGTCGTTTTCGGCGCGCGCCG; chemistry not fully specified) [C-CpG]” here?
The value was “increased leukotriene synthesis”.

What about the “Σ 5-LOX metabolites” value ([1]; Table S1, 2×10^7 PMNLs, 15 min at 37 °C without or with 5 µM Chloroquine, then ODN, after 20 min 0.5×10^9 opsonized S. typhimurium for 15 min, mean ± SEM, three independent experiments) of the same substance?
The value was 42.1 ± 4.2 ng/107 PMNLs.

What does the source list for “QLRKLNLSFNYQKRVSFAHLSLAPSFGSLV [LRR11, 30 amino acid peptide from leucine-rich repeat of TLR9]”?
effect of LRR11 on 5-LOX product synthesis in combination with ODN or LPS ([1]; 1 µM LRR11 added simultaneously with 1 µM ODN or LPS, then opsonized S. typhimurium, Figure 1): does not significantly change the effects of G-rich ODN and lipopolysaccharides (LPS), but obviously enhances the effects of CpG-ODNs; also recorded: stimulated the formation of the 5-LOX products; also recorded: synergistically amplifying each other’s effects; effect of LRR11 on FPS-ZM1 action on leukotriene synthesis ([1]; 1 µM LRR11 with ODN after 0.15 µM FPS-ZM1, Figure 3): its action is nullified in the presence of LRR11 peptide; also recorded: LRR11 abolished the effects of FPS-ZM1 and restored the level of leukotriene synthesis; LTB4 accumulation, dependence on way of LRR11 addition ([1]; (1) LRR11 15 min before ODN, (2) simultaneously but independently, (3) 1-h pre-mixed): only pathways (2) and (3) provide a significant effect on LTB4 accumulation; effect on oligonucleotide internalization [2]: decrease in the oligonucleotide internalization; effect on TLR9 signaling [3]: attenuating of TLR9 signaling; binding to CpG-ODNs [4]: can bind to the CpG-ODNs; effect on PMNL adhesion [5]: LRR11 did not affect this
